The structures appear in SMILES notation.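 Method: 48-hour compound exposure of cells in 96-well plates, five concentrations, linear interpolation of endpoints. Definition used: TGI = concentration required for complete inhibition of growth.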

Among the test systems are HT29 colon; MCF7 breast; NCI-H460 lung; UACC-257 melanoma; DU-145 prostate; 786-0 renal; NCI/ADR-RES ovarian; HS 578T breast; NCI-H23 lung; PC-3 prostate.
Common to all, as to assay: NCI anticancer screen, dose series, 48 h

On to `C/C(=N/NC(=S)N1CCN(C(=S)N/N=C(/C)c2ccccn2)CC1)c1ccccn1`, for which the TGI in the assay with HT29 colon is more than 100 µM; in the assay with MCF7 breast it was more than 100 µM; in the assay on NCI-H460 lung, more than 100 µM; in the assay with UACC-257 melanoma it was more than 100 µM; in the assay on DU-145 prostate, more than 95.5 µM; in the assay on 786-0 renal, more than 100 µM. Moreover, the TGI in the assay with NCI/ADR-RES ovarian is more than 45.8 µM; in the assay with HS 578T breast, more than 83.8 µM; in the assay with NCI-H23 lung it was more than 81.9 µM; in the assay with PC-3 prostate, more than 100 µM.
Consider `CC(=O)NC(=O)NC1=NCCC(=O)N1CCc1c[nH]c2ccccc12`, for which the TGI in the assay with HT29 colon, in the assay with MCF7 breast, with NCI-H460 lung, in the assay on UACC-257 melanoma, with DU-145 prostate and in the assay on 786-0 renal was more than 100 µM in each case. For the same compound, the TGI with NCI/ADR-RES ovarian, with HS 578T breast, with NCI-H23 lung and in the assay with PC-3 prostate was more than 100 µM each time.
For the compound `CC(C)(C)C(=O)N1CCN(C=O)C1=S`, the TGI is more than 100 µM in the assay with HT29 colon; 64.5 µM with MCF7 breast; more than 100 µM in the assay with NCI-H460 lung; more than 100 µM in the assay with UACC-257 melanoma; more than 100 µM with DU-145 prostate; more than 100 µM in the assay with 786-0 renal. The TGI in the assay on NCI/ADR-RES ovarian, with HS 578T breast, with NCI-H23 lung and with PC-3 prostate was more than 100 µM each time.
With `Cc1nc2cccc(F)c2c(=O)n1-c1nnc(C(F)(F)F)s1`, the TGI in the assay on HT29 colon, in the assay with MCF7 breast, with NCI-H460 lung, in the assay with UACC-257 melanoma, in the assay on DU-145 prostate and in the assay on 786-0 renal was more than 10 µM each time. The TGI in the assay on NCI/ADR-RES ovarian, with HS 578T breast, in the assay on NCI-H23 lung and with PC-3 prostate was more than 10 µM each time.
Turning to `CCn1c(=O)c2c3ccc(OC(C)=O)cc3[nH]c2c2ccc(OC(C)=O)cc21`, the TGI is more than 100 µM in the assay with HT29 colon; more than 100 µM with MCF7 breast; more than 100 µM in the assay on NCI-H460 lung; more than 100 µM with UACC-257 melanoma; 49.1 µM in the assay on DU-145 prostate; more than 100 µM in the assay on 786-0 renal. Besides, the TGI in the assay with NCI/ADR-RES ovarian, in the assay on HS 578T breast, with NCI-H23 lung and with PC-3 prostate was more than 100 µM each time.
As for `COc1cc2c(cc1OC)C(=O)/C(=C/c1ccc(O)cc1)CC2`, the TGI with HT29 colon, with MCF7 breast, with NCI-H460 lung, in the assay on UACC-257 melanoma, with DU-145 prostate and with 786-0 renal was more than 10 µM in each case. Further, the TGI with NCI/ADR-RES ovarian, in the assay on HS 578T breast, in the assay on NCI-H23 lung and in the assay on PC-3 prostate was more than 10 µM each time.
For the compound `COc1ccccc1NC(=S)N/N=C/c1ccccn1`, the TGI with HT29 colon was more than 31.6 µM; in the assay with MCF7 breast, more than 100 µM; with NCI-H460 lung it was 6.12 µM; in the assay with UACC-257 melanoma, 0.416 µM; with DU-145 prostate, 19 µM; in the assay on 786-0 renal it was 13 µM. Moreover, the TGI in the assay on NCI/ADR-RES ovarian was 0.237 µM; with HS 578T breast it was more than 46.4 µM; in the assay on NCI-H23 lung, 6.01 µM; in the assay with PC-3 prostate, more than 46.4 µM.
Turning to `COC(=O)c1cc(C)ccc1/C=C1\Cc2c(C)cc(C)cc2C1=O`, the TGI in the assay with HT29 colon is more than 100 µM; in the assay on MCF7 breast it was more than 100 µM; in the assay with NCI-H460 lung, more than 100 µM; in the assay on UACC-257 melanoma, more than 30.1 µM; with DU-145 prostate, more than 100 µM; in the assay on 786-0 renal, 40.6 µM. Besides, the TGI is more than 100 µM in the assay with NCI/ADR-RES ovarian, 42.9 µM in the assay with HS 578T breast, more than 72.3 µM in the assay with NCI-H23 lung and more than 100 µM in the assay with PC-3 prostate.
For `COC(=O)/C=C1\C(=O)C=C2[C@@H]3C[C@H]4C[C@H](CC[C@@]4(C)N21)C3(C)NC(C)=O` (stereo not given in full), the TGI in the assay with HT29 colon was 28.2 µM; in the assay with MCF7 breast it was 68.7 µM; with NCI-H460 lung, more than 100 µM; in the assay on UACC-257 melanoma, 52.5 µM; with DU-145 prostate it was 32.8 µM; in the assay with 786-0 renal it was 14.3 µM. For the same compound, the TGI with NCI/ADR-RES ovarian was more than 77 µM; in the assay on HS 578T breast it was 39 µM; in the assay with NCI-H23 lung it was more than 60.6 µM; with PC-3 prostate, 31.4 µM.
Take `CCN1CCCn2c(=O)[nH]c3cc(Br)cc1c32`: the TGI in the assay on HT29 colon, with MCF7 breast, with NCI-H460 lung, with UACC-257 melanoma, in the assay with DU-145 prostate and with 786-0 renal was more than 100 µM throughout. In addition, the TGI in the assay with NCI/ADR-RES ovarian is more than 100 µM; with HS 578T breast, 97.2 µM; in the assay with NCI-H23 lung it was more than 100 µM; in the assay with PC-3 prostate, more than 100 µM.
`CC(=O)O[C@H]1CCC2[C@@H]3CCC4NC(=O)C(C#N)C[C@]4(C)C3CC[C@@]21C` (stereo not given in full): the TGI with HT29 colon, in the assay on MCF7 breast, in the assay on NCI-H460 lung, in the assay on UACC-257 melanoma, in the assay on DU-145 prostate and in the assay with 786-0 renal was more than 10 µM each time. Besides, the TGI with NCI/ADR-RES ovarian, in the assay on HS 578T breast, in the assay with NCI-H23 lung and in the assay with PC-3 prostate was more than 10 µM each time.
For `O=[N+]([O-])c1cc(F)ccc1Sc1ccccc1`, the TGI with HT29 colon, with MCF7 breast, in the assay with NCI-H460 lung, in the assay with UACC-257 melanoma, with DU-145 prostate and in the assay on 786-0 renal was more than 10 µM throughout. Also, the TGI in the assay with NCI/ADR-RES ovarian, in the assay with HS 578T breast, in the assay on NCI-H23 lung and with PC-3 prostate was more than 10 µM throughout.
Turning to `O=C1/C(=C/c2ccc(O)cc2)CCC1CNc1ccccc1` (stereo not given), the TGI is 27.7 µM in the assay with HT29 colon; 10.2 µM in the assay on MCF7 breast; 50.9 µM with NCI-H460 lung; 30.6 µM in the assay with UACC-257 melanoma; 16.9 µM in the assay with DU-145 prostate; 18.9 µM with 786-0 renal. In addition, the TGI in the assay on NCI/ADR-RES ovarian is 37.1 µM; in the assay with HS 578T breast, 57.6 µM; with NCI-H23 lung, 30.4 µM; with PC-3 prostate, 23.7 µM.
Take `C[C@]12CC[C@H]3[C@@H](CCC4=C(Br)C(=O)C=C[C@@]43O)[C@@H]1CCC2=O`: the TGI in the assay on HT29 colon was more than 100 µM; in the assay with MCF7 breast, more than 100 µM; in the assay on NCI-H460 lung, 63.4 µM; with UACC-257 melanoma, 63.8 µM; in the assay with DU-145 prostate, 68.7 µM; in the assay with 786-0 renal, 81.2 µM. Besides, the TGI with NCI/ADR-RES ovarian, in the assay with HS 578T breast, with NCI-H23 lung and with PC-3 prostate was more than 100 µM in each case.
Consider `COc1cc(C)cc2c(-c3c(O)cc(O)c4c3C[C@H](C)N[C@H]4C)cc(-c3cc(-c4c(O)cc(O)c5c4C[C@H](C)N[C@H]5C)c4cc(C)cc(OC)c4c3O)c(O)c12`, for which the TGI with HT29 colon, in the assay on MCF7 breast, in the assay with NCI-H460 lung, in the assay with UACC-257 melanoma, with DU-145 prostate and in the assay with 786-0 renal was more than 100 µM throughout. The TGI in the assay on NCI/ADR-RES ovarian, with HS 578T breast, in the assay with NCI-H23 lung and in the assay with PC-3 prostate was more than 100 µM each time.
Turning to `O=C1c2ccccc2C(=O)c2nn(N=P(CP(=Nn3nc4c(n3)C(=O)c3ccccc3C4=O)(c3ccccc3)c3ccccc3)(c3ccccc3)c3ccccc3)nc21`, the TGI with HT29 colon, in the assay on MCF7 breast, in the assay on NCI-H460 lung, in the assay on UACC-257 melanoma, in the assay with DU-145 prostate and in the assay on 786-0 renal was more than 100 µM in each case. The TGI with NCI/ADR-RES ovarian, with HS 578T breast, in the assay on NCI-H23 lung and in the assay with PC-3 prostate was more than 100 µM each time.
For `COc1cc2oc(-c3ccc4c(c3)OCO4)c(OC)c(=O)c2c(O)c1OC`, the TGI in the assay on HT29 colon, in the assay on MCF7 breast, in the assay on NCI-H460 lung, in the assay on UACC-257 melanoma, in the assay with DU-145 prostate and in the assay on 786-0 renal was more than 50 µM in each case. In addition, the TGI in the assay with NCI/ADR-RES ovarian, in the assay on HS 578T breast, in the assay on NCI-H23 lung and in the assay on PC-3 prostate was more than 50 µM each time.
Turning to `COC(=O)c1cc(C)ccc1C1CN=NC12Cc1c(C)cc(C)cc1C2=O` (stereo not given), the TGI in the assay on HT29 colon is 45.8 µM; in the assay with MCF7 breast, 69.1 µM; in the assay on NCI-H460 lung it was 42.7 µM; in the assay with UACC-257 melanoma it was 69.7 µM; in the assay with DU-145 prostate, more than 100 µM; in the assay on 786-0 renal it was more than 100 µM. In addition, the TGI with NCI/ADR-RES ovarian is 46.8 µM; in the assay with HS 578T breast, 55.8 µM; with NCI-H23 lung, 50.4 µM; in the assay on PC-3 prostate it was more than 100 µM.
Turning to `COC1(OC)C=CC(=O)C=C1`, the TGI is 12.1 µM in the assay with HT29 colon; 8.42 µM with MCF7 breast; 19.7 µM in the assay on NCI-H460 lung; 8.48 µM in the assay on UACC-257 melanoma; 12.6 µM with DU-145 prostate; 4.55 µM with 786-0 renal. Further, the TGI was 13.7 µM in the assay on NCI/ADR-RES ovarian, more than 40.5 µM with HS 578T breast, 10.6 µM with NCI-H23 lung and 13.9 µM with PC-3 prostate.
Turning to `O=NN1CCCS1(=O)=O`, the TGI in the assay on HT29 colon, with MCF7 breast, in the assay with NCI-H460 lung, in the assay on UACC-257 melanoma, with DU-145 prostate and with 786-0 renal was more than 100 µM each time. Further, the TGI in the assay with NCI/ADR-RES ovarian, in the assay with HS 578T breast, in the assay with NCI-H23 lung and in the assay with PC-3 prostate was more than 100 µM each time.

For the origin of these results see PubChem BioAssay (NCI).
